Source: US9708244B2, “Coloring material and method for producing the same” (DAI NIPPON PRINTING CO., LTD., priority 2012, dated 2017)

Legend:
Assay type in all cases: physicochemical
[1] = Evaluation of thermal decomposition temperature (TG-DTA); details: heating rate 5° C./min to 800° C., extrapolated temperature of TG curve peak
Procedure: As a reference, alumina was put in a quarts pan. Using horizontal differential thermogravimetric-differential thermal analyzer (TG-DTA) TG8120 (manufactured by Rigaku Corporation), they were measured at a heating rate of 5° C./min to 800° C. The extrapolated temperature of the peak of the thus-obtained TG curve was used as a decomposition point, and the temperature at the decomposition point was used as a thermal decomposition temperature. The thermal decomposition temperature can be used as an indicator of heat resistance.

[2] = Evaluation of weight reduction rate (TG-DTA, held at 230° C.); details: heated to 230° C. at 20° C./min, kept 60 minutes
Procedure: As a reference, alumina was put in a quarts pan. Using differential thermogravimetric analyzer (TG-DTA) TG8120 (manufactured by Rigaku Corporation), they were heated to 230° C. at a heating rate of 20° C./min. From the time when they reached 230° C., they were kept at the same temperature for 60 minutes and then measured for the weight reduction rate. The weight reduction rate is calculated by the following formula and can be used as an indicator of heat resistance. Weight reduction rate=(“weight before heating”−“weight after heating”)/“weight before heating”×100(%) <Evaluation of Dyeing Property> (1) Fabric Dyeing

[3] = Evaluation of color change in color materials (absorption spectrum in methanol); details: 10 mg in 100 mL methanol, diluted 20-fold, 1 cm cell, FIG. 1
Procedure: First, 10 mg of each of the color materials A and C obtained in Examples 1 and 3 was dissolved in 100 mL of methanol and diluted 20-fold, thereby obtaining a measurement solution. The absorption spectrum of the solution was measured by using a 1 cm quarts cell in spectrophotometer U-3500 manufactured by Hitachi, Ltd. Next, 10 mg of BB7 (monomer) was dissolved in 100 mL of methanol and diluted 20-fold, thereby obtaining a measurement solution as a control product. The absorption spectrum of the solution was measured by the same method as above.

| Thermal decomposition temperature [1] [°C] | Weight reduction rate (230° C. for 1 hr) [2] [%] | Color change versus BB7 (absorption spectrum peak form) [3] | SMILES |
| --- | --- | --- | --- |
| 218 | −40.2 |  | CCNc1ccc(C(=C2C=CC(=[N+](CC)CC)C=C2)c2ccc(N(CC)CC)cc2)c2ccccc12.[Cl-] [Color material D, Basic Blue 7 (CI-42595)] |
| 245 | −38.3 |  | CCNc1ccc(C(=C2C=CC(=[N+](CC)CC)C=C2)c2ccc(N(CC)CC)cc2)c2ccccc12.Cc1ccc(S(=O)(=O)[O-])cc1 [Color material E] |
| 236 | −33.8 |  | CCNc1ccc(C(=C2C=CC(=[N+](CC)CC)C=C2)c2ccc(N(CC)CC)cc2)c2ccccc12 [Color material F] |

Second part, the compound before the results:

| SMILES | Thermal decomposition temperature [1] [°C] | Weight reduction rate (230° C. for 1 hr) [2] [%] | Color change versus BB7 (absorption spectrum peak form) [3] |
| --- | --- | --- | --- |
| CCN(CC)c1ccc(C(=C2C=CC(=[N+](CC)CC)C=C2)c2ccc(NCc3ccc(CNc4ccc(C(=C5C=CC(=[N+](CC)CC)C=C5)c5ccc(N(CC)CC)cc5)c5ccccc45)cc3)c3ccccc23)cc1.[Cl-].[Cl-] [Color material A] | 247 | −28.9 | almost no change in color |
| CCN(CC)c1ccc(C(=C2C=CC(=[N+](CC)CC)C=C2)c2ccc(NCc3ccc(CNc4ccc(C(=C5C=CC(=[N+](CC)CC)C=C5)c5ccc(N(CC)CC)cc5)c5ccccc45)cc3)c3ccccc23)cc1 [Color material B] | 255 | −29.1 |  |
